In US5629011A, “Composition for nasal administration” (priority 1992, dated 1997):
Values joined by “and” are separate entries in the source; they are usually repeats but may differ in a detail not shown here. Equal values may be shown once.

Key:
in vivo = settings: sheep
Method: (§1) The chitosan concentration was 0.5%. The solution was administered into the sheep nostril using a simple spray pump device followed by serial blood sampling. […] Control experiments were conducted using i.v. dosage of the glucuronide.
(§2) Blood samples (10 ml) were taken at the following times.
Plasma was separated by centrifugation soon after sampling and the plasma samples (approximately 5 ml) were stored at -80° C. prior to analysis.
Biomed. Appl. 230, 427. […] The limit of quantification of the method is 1 ng/ml for a 0.5 ml plasma sample and the assay is linear over the range of 1 to 1200 ng/ml drug concentration.

[1] = Pharmacokinetic parameters after intravenous administration to sheep; settings: for Vd: Apparent Volume of Distibution; for AUC at 5 h: Area Under Curve; for half-life: T1/2, i.v. 0.015 mg/kg
Method: as §1, §2
(§3) The area under the curve (AUC) was calculated over 0-300 minutes using the linear trapezoidal method. […] Clearance was calculated by dividing the dose by the AUC, and the volume of distribution was calculated by dividing the clearance by the elimination rate constant. The bioavailability was calculated by dividing the mean AUC for nasal administration by the normalised mean AUC after intravenous administration.

[2] = Pharmacokinetic parameters after nasal administration to sheep; settings: for Vd: Apparent Volume of Distribution; for AUC at 5 h: Area Under Curve; for half-life: T1/2, nasal 0.15 mg/kg with 0.5% chitosan
Method: as §1, §2, §3

[3] = cited from earlier work; for unwanted side effects: metabolites compared with morphine, for morphine: therapeutic use
[4] = intracerebroventricular, mice; cited from earlier work
[5] = subcutaneous injection, rat; cited from earlier work
[6] = 0.15 mg/kg, morphine-6-glucuronide concentration (plasma)
[7] = iv, 0.015 mg/kg, morphine-6-glucuronide concentration (plasma)
[8] = i.v. 0.015 mg/kg, individual sheep NF, OF, PF
[9] = nasal 0.15 mg/kg with 0.5% chitosan, individual sheep IF, JF, KF, 0.15 mg/kg

CN1CC[C@]23c4c5ccc(O)c4O[C@H]2[C@@H](O[C@@H]2O[C@H](C(=O)O)[C@@H](O)[C@H](O)[C@H]2O)C=C[C@H]3[C@H]1C5 [morphine-6-glucuronide]
concentration at 10 min (in vivo; [6]): 89.1 ng/mL
concentration at 0.25 h (in vivo; [6]): 121 ng/mL
concentration at 20 min (in vivo; [6]): 102 ng/mL
concentration at 0.5 h (in vivo; [6]): 107 ng/mL
concentration at 0.75 h (in vivo; [6]): 108 ng/mL
concentration at 1 h (in vivo; [6]): 66.7 ng/mL
concentration at 1.5 h (in vivo; [6]): 41.1 ng/mL
concentration at 2 h (in vivo; [6]): 21.9 ng/mL
concentration at 3 h (in vivo; [6]): 10.2 ng/mL
concentration at 6 h (in vivo; [6]): < 1 ng/mL
morphine-6-glucuronide concentration (plasma) (in vivo; iv, 0.015 mg/kg, 2.5 h): 3.5 ng/mL
concentration at 2 min (in vivo; [7]): 43.8 ng/mL
concentration at 5 min (in vivo; [7]): 40.3 ng/mL
concentration at 10 min (in vivo; [7]): 36.1 ng/mL
concentration at 0.25 h (in vivo; [7]): 28.6 ng/mL
concentration at 20 min (in vivo; [7]): 23.2 ng/mL
concentration at 0.5 h (in vivo; [7]): 22.5 ng/mL
concentration at 1.5 h (in vivo; [7]): 9.4 ng/mL
concentration at 3 h (in vivo; [7]): 2 ng/mL
concentration at 4 h (in vivo; [7]): < 1 ng/mL
concentration at 5 h (in vivo; [7]): < 1 ng/mL
concentration at 6 h (in vivo; [7]): < 1 ng/mL
Area Under Curve ([1]; i.v. 0.015 mg/kg, 0-300 min, individual sheep NF, OF, PF, 300 min): 3819 ng·min/mL and 2560 ng·min/mL
Apparent Volume of Distibution [1, 8]: 0.30 lkg^-1 and 0.35 lkg^-1
Cmax [1, 8]: 55 ng/mL and 50 ng/mL
T1/2 [1, 8]: 53 min and 42 min
Tmax [1, 8]: 2 min and 5 min
clearance [1, 8]: 3.9 mL/min/kg and 5.9 mL/min/kg
Vd ([1]; sheep, plasma, iv, 0.015 mg/kg, i.v. 0.015 mg/kg, individual sheep NF, OF, PF): 0.58 L/kg
Vd ([1]; sheep, plasma, iv, 0.015 mg/kg, i.v. 0.015 mg/kg, mean of 3 sheep): 0.41 L/kg
AUC at 5 h ([1]; sheep, plasma, iv, 0.015 mg/kg, i.v. 0.015 mg/kg, 0-300 min, individual sheep NF, OF, PF): 36.1 ng·h/mL
AUC at 5 h ([1]; sheep, plasma, iv, 0.015 mg/kg, i.v. 0.015 mg/kg, 0-300 min, mean of 3 sheep): 47.5 ng·h/mL
clearance ([1]; sheep, plasma, iv, 0.015 mg/kg, Clearance, i.v. 0.015 mg/kg, individual sheep NF, OF, PF): 6.9 mL/min/kg
clearance ([1]; sheep, plasma, iv, 0.015 mg/kg, Clearance, i.v. 0.015 mg/kg, mean of 3 sheep): 5.6 mL/min/kg
Cmax ([1]; sheep, plasma, iv, 0.015 mg/kg, Cmax, i.v. 0.015 mg/kg, individual sheep NF, OF, PF): 44 ng/mL
Cmax ([1]; sheep, plasma, iv, 0.015 mg/kg, Cmax, i.v. 0.015 mg/kg, mean of 3 sheep): 50 ng/mL
half-life ([1]; sheep, plasma, iv, 0.015 mg/kg, individual sheep NF, OF, PF): 58 min
half-life ([1]; sheep, plasma, iv, 0.015 mg/kg, mean of 3 sheep): 51 min
Tmax ([1]; sheep, plasma, iv, 0.015 mg/kg, Tmax, i.v. 0.015 mg/kg, mean of 3 sheep): 3 min
bioavailability ([2]; nasal 0.15 mg/kg with 0.5% chitosan, vs normalised mean i.v. AUC, individual sheep IF, JF, KF, 0.15 mg/kg): 37.3% and 26.6%
Area Under Curve ([2]; nasal 0.15 mg/kg with 0.5% chitosan, 0-300 min, individual sheep IF, JF, KF, 0.15 mg/kg, 300 min): 10631 ng·min/mL and 7581 ng·min/mL
Apparent Volume of Distribution ([2]; nasal 0.15 mg/kg with 0.5% chitosan, corrected for bioavailable dose, individual sheep IF, JF, KF, 0.15 mg/kg): 0.31 lkg^-1
clearance ([2]; nasal 0.15 mg/kg with 0.5% chitosan, corrected for bioavailable dose, mean of 3 sheep): 5.3 mL/min/kg
Cmax [2, 9]: 165 ng/mL and 110 ng/mL
T1/2 [2, 9]: 41 min and 42 min
Tmax [2, 9]: 10 min
clearance ([2]; sheep, plasma, 0.15 mg/kg): 5.3 mL/min/kg
Vd ([2]; sheep, plasma, 0.15 mg/kg, nasal 0.15 mg/kg with 0.5% chitosan, corrected for bioavailable dose, individual sheep IF, JF, KF): 0.37 L/kg
Vd ([2]; sheep, plasma, 0.15 mg/kg, nasal 0.15 mg/kg with 0.5% chitosan, corrected for bioavailable dose, mean of 3 sheep): 0.33 L/kg
AUC at 5 h ([2]; sheep, plasma, 0.15 mg/kg, nasal 0.15 mg/kg with 0.5% chitosan, 0-300 min, individual sheep IF, JF, KF): 156 ng·h/mL
AUC at 5 h ([2]; sheep, plasma, 0.15 mg/kg, nasal 0.15 mg/kg with 0.5% chitosan, 0-300 min, mean of 3 sheep): 153 ng·h/mL
bioavailability ([2]; sheep, plasma, 0.15 mg/kg, Bioavailability, nasal 0.15 mg/kg with 0.5% chitosan, vs normalised mean i.v. AUC, individual sheep IF, JF, KF): 32.9%
Cmax ([2]; sheep, plasma, 0.15 mg/kg, Cmax, nasal 0.15 mg/kg with 0.5% chitosan, individual sheep IF, JF, KF): 121 ng/mL
Cmax ([2]; sheep, plasma, 0.15 mg/kg, Cmax, nasal 0.15 mg/kg with 0.5% chitosan, mean of 3 sheep): 132 ng/mL
half-life ([2]; sheep, plasma, 0.15 mg/kg, individual sheep IF, JF, KF): 51 min
half-life ([2]; sheep, plasma, 0.15 mg/kg, mean of 3 sheep): 45 min
Tmax ([2]; sheep, plasma, 0.15 mg/kg, Tmax, nasal 0.15 mg/kg with 0.5% chitosan, individual sheep IF, JF, KF): 15 min
Tmax ([2]; sheep, plasma, 0.15 mg/kg, Tmax, nasal 0.15 mg/kg with 0.5% chitosan, mean of 3 sheep): 13 min
bioavailability ([2]; sheep, plasma, 0.15 mg/kg, mean nasal bioavailability, nasal 0.15 mg/kg with 0.5% chitosan, vs i.v. AUC normalised to 0.15 mg/kg, mean, n=3): 32.3%
biological half-life compared with morphine [3]: may also have a longer biological half-life
unwanted side effects [3]: less likely to have the unwanted side effects

CN1CC[C@]23c4c5ccc(O)c4O[C@H]2[C@@H](OS(=O)(=O)O)C=C[C@H]3[C@H]1C5 [morphine-6-sulphate]
analgesic potency compared with morphine [4]: more potent analgesic than morphine
antinociceptive activity [5]: potent antinociceptive activity
unwanted side effects [3]: less likely to have the unwanted side effects
